Results on 12 compounds are retold here after PubChem BioAssay AID288 (DTP/NCI, 2004).

Several values for one entry are separate records, joined by “and”; a condition that tells them apart may be missing. Identical values can stand only once. Results filed as inconclusive are left out.

The subject of the assay is BDF1 mice, M5076 sarcoma s.c., survival/tumor T/C. Briefly: NCI In Vivo Anticancer Drug Screen. Data for tumor model Sarcoma M5076 (subcutaneous) in B6D2F1 (BDF1) mice. The protocol: The antitumor activity of compounds was measured in mice bearing transplantable tumors. Survival or tumor size were measured and the results are expressed as the measurement made in the treated group (T) divided by the measurement made in the vehicle treated control group (C). The tumor model used in this assay is Sarcoma M5076 (subcutaneous) in B6D2F1 (BDF1) mice

[1] abbreviates: endpoint: median survival time, dose: 50.0 mg/kg/injection, schedule: Q01DX009 (ip), vehicle: saline with Tween-80, higher = longer survival.
Setting [2] is: endpoint: median survival time, dose: 100.0 mg/kg/injection, schedule: Q01DX009 (ip), vehicle: saline with Tween-80, higher = longer survival.
[3] abbreviates: endpoint: median survival time, dose: 200.0 mg/kg/injection, schedule: Q01DX009 (ip), vehicle: saline with Tween-80, higher = longer survival.

For the compound `CC1(CO)C(O)CCC2(C)C1CCC1CC3CC12CCC3(O)CO` (stereo not drawn), the T/C by setting is: (endpoint: median survival time, dose: 23.3 mg/kg/injection, schedule: Q01DX017 (sc), vehicle: Klucel (hydroxypropylcellulose) (HPC), higher = longer survival) 93 % of control; (endpoint: median survival time, dose: 38.9 mg/kg/injection, schedule: Q01DX017 (oral), vehicle: Klucel (hydroxypropylcellulose) (HPC), higher = longer survival) 93 % of control; (endpoint: median survival time, dose: 64.8 mg/kg/injection, schedule: Q01DX017 (ip), vehicle: Klucel (hydroxypropylcellulose) (HPC), higher = longer survival) 124 % of control; (endpoint: median survival time, dose: 64.8 mg/kg/injection, schedule: Q01DX017 (oral), vehicle: Klucel (hydroxypropylcellulose) (HPC), higher = longer survival) 102 % of control and 109 % of control; (endpoint: median survival time, dose: 64.8 mg/kg/injection, schedule: Q01DX017 (sc), vehicle: Klucel (hydroxypropylcellulose) (HPC), higher = longer survival) 163 % of control; (endpoint: median survival time, dose: 77.8 mg/kg/injection, schedule: Q04DX005 (ip), vehicle: Klucel (hydroxypropylcellulose) (HPC), higher = longer survival) 103 % of control. Also, the T/C by setting is: (endpoint: median survival time, dose: 83.7 mg/kg/injection, schedule: Q01DX017 (oral), vehicle: Klucel (hydroxypropylcellulose) (HPC), higher = longer survival) 116 % of control; (endpoint: median survival time, dose: 100.0 mg/kg/injection, schedule: Q03HX003 (sc), vehicle: Klucel (hydroxypropylcellulose) (HPC), higher = longer survival) 106 % of control; (endpoint: median survival time, dose: 100.0 mg/kg/injection, schedule: Q03HX003 (sc), vehicle: saline, higher = longer survival) 102 % of control; (endpoint: median survival time, dose: 108.0 mg/kg/injection, schedule: Q01DX017 (ip), vehicle: Klucel (hydroxypropylcellulose) (HPC), higher = longer survival) 116 % of control; (endpoint: median survival time, dose: 108.0 mg/kg/injection, schedule: Q01DX017 (oral), vehicle: Klucel (hydroxypropylcellulose) (HPC), higher = longer survival) 100 % of control and 118 % of control; (endpoint: median survival time, dose: 108.0 mg/kg/injection, schedule: Q01DX017 (sc), vehicle: Klucel (hydroxypropylcellulose) (HPC), higher = longer survival) 113 % of control and 121 % of control. Further, the T/C runs as follows: (endpoint: median survival time, dose: 130.0 mg/kg/injection, schedule: Q04DX005 (ip), vehicle: Klucel (hydroxypropylcellulose) (HPC), higher = longer survival) 103 % of control; (endpoint: median survival time, dose: 139.0 mg/kg/injection, schedule: Q01DX017 (oral), vehicle: Klucel (hydroxypropylcellulose) (HPC), higher = longer survival) 118 % of control; (endpoint: median survival time, dose: 180.0 mg/kg/injection, schedule: Q01DX017 (oral), vehicle: Klucel (hydroxypropylcellulose) (HPC), higher = longer survival) 116 % of control; (endpoint: median survival time, dose: 200.0 mg/kg/injection, schedule: Q03HX003 (sc), vehicle: Klucel (hydroxypropylcellulose) (HPC), higher = longer survival) 98 % of control; (endpoint: median survival time, dose: 200.0 mg/kg/injection, schedule: Q03HX003 (sc), vehicle: saline, higher = longer survival) 100 % of control; (endpoint: median survival time, dose: 216.0 mg/kg/injection, schedule: Q04DX005 (ip), vehicle: Klucel (hydroxypropylcellulose) (HPC), higher = longer survival) 104 % of control. For the same compound, the T/C (endpoint: median survival time, dose: 300.0 mg/kg/injection, schedule: Q01DX017 (oral), vehicle: Klucel (hydroxypropylcellulose) (HPC), higher = longer survival) is 159 % of control; the T/C (endpoint: median survival time, dose: 360.0 mg/kg/injection, schedule: Q04DX005 (ip), vehicle: Klucel (hydroxypropylcellulose) (HPC), higher = longer survival) is 106 % of control; the T/C (endpoint: median survival time, dose: 600.0 mg/kg/injection, schedule: Q04DX005 (ip), vehicle: Klucel (hydroxypropylcellulose) (HPC), higher = longer survival) was 109 % of control.

Consider `Cc1ccc(S(=O)(=O)O)cc1.Cc1ccc(S(=O)(=O)O)cc1.[NH-]C1CCCCC1[NH-].[Pt+2]`, for which the T/C (endpoint: median survival time, dose: 4.0 mg/kg/injection, schedule: Q02DX032 (ip), vehicle: dextrose, higher = longer survival) was 94 % of control.

Turning to `COC1CC2C=C(C)/C=C/C=C/C(=O)NC(c3ccccc3)C/C=C/CCC(O)CC(=O)C2=C1O` (stereo not drawn), the T/C (endpoint: median survival time, dose: 1.0 mg/kg/injection, schedule: Q01DX009 (ip), vehicle: Klucel (hydroxypropylcellulose) (HPC), higher = longer survival) was 100 % of control; the T/C (endpoint: median survival time, dose: 2.0 mg/kg/injection, schedule: Q01DX009 (ip), vehicle: Klucel (hydroxypropylcellulose) (HPC), higher = longer survival) is 100 % of control; the T/C (endpoint: median survival time, dose: 4.0 mg/kg/injection, schedule: Q01DX009 (ip), vehicle: Klucel (hydroxypropylcellulose) (HPC), higher = longer survival) is 100 % of control; the T/C (endpoint: median tumor weight (est.), dose: 1.0 mg/kg/injection, schedule: Q01DX009 (ip), vehicle: Klucel (hydroxypropylcellulose) (HPC), higher = larger tumour) was 77 % of control; the T/C (endpoint: median tumor weight (est.), dose: 2.0 mg/kg/injection, schedule: Q01DX009 (ip), vehicle: Klucel (hydroxypropylcellulose) (HPC), higher = larger tumour) is 109 % of control; the T/C (endpoint: median tumor weight (est.), dose: 4.0 mg/kg/injection, schedule: Q01DX009 (ip), vehicle: Klucel (hydroxypropylcellulose) (HPC), higher = larger tumour) is 82 % of control.

As to `O=c1[nH]c(=O)n([C@H]2CCCO2)cc1F`, the T/C is 150 % of control (endpoint: mean tumor weight, dose: 50.0 mg/kg/injection, schedule: Q02DX011 (ip), vehicle: alkali diluted with saline, higher = larger tumour); 93 % of control (endpoint: mean tumor weight, dose: 100.0 mg/kg/injection, schedule: Q02DX011 (ip), vehicle: alkali diluted with saline, higher = larger tumour); 74 % of control (endpoint: mean tumor weight, dose: 200.0 mg/kg/injection, schedule: Q02DX011 (ip), vehicle: alkali diluted with saline, higher = larger tumour).

With `Nc1ccn(C2OC3COC2C3O)c(=O)n1` (stereo not drawn), the T/C runs as follows: (endpoint: median survival time, dose: 50.0 mg/kg/injection, schedule: Q01DX009 (ip), vehicle: saline, higher = longer survival) 89 % of control; (endpoint: median survival time, dose: 100.0 mg/kg/injection, schedule: Q01DX009 (ip), vehicle: saline, higher = longer survival) 110 % of control; (endpoint: median survival time, dose: 200.0 mg/kg/injection, schedule: Q01DX009 (ip), vehicle: saline, higher = longer survival) 102 % of control; (endpoint: median tumor weight (est.), dose: 100.0 mg/kg/injection, schedule: Q01DX009 (ip), vehicle: saline, higher = larger tumour) 65 % of control; (endpoint: median tumor weight (est.), dose: 200.0 mg/kg/injection, schedule: Q01DX009 (ip), vehicle: saline, higher = larger tumour) 92 % of control.

In the case of `CN(C)S(=O)(=O)c1ccc(CCCCc2ccc(N3C(N)=NC(N)=NC3(C)C)cc2Cl)c(Cl)c1`, for the setting “endpoint: median survival time, dose: 38.0 mg/kg/injection, schedule: Q01DX009 (ip), vehicle: saline with Tween-80, higher = longer survival”, the T/C is 100 % of control.

`CCOC(=O)c1ccc(N2C(=O)OC(C)(C)C2=O)cc1`: the T/C is 108 % of control under setting [1]; 115 % of control under setting [2]; 95 % of control under setting [3]; 99 % of control (endpoint: median tumor weight (est.), dose: 50.0 mg/kg/injection, schedule: Q01DX009 (ip), vehicle: saline with Tween-80, higher = larger tumour); 97 % of control (endpoint: median tumor weight (est.), dose: 100.0 mg/kg/injection, schedule: Q01DX009 (ip), vehicle: saline with Tween-80, higher = larger tumour); 80 % of control (endpoint: median tumor weight (est.), dose: 200.0 mg/kg/injection, schedule: Q01DX009 (ip), vehicle: saline with Tween-80, higher = larger tumour).

Consider `Nc1ncnc2c1ccn2C1OC(CO)C(O)C1O` (stereo not drawn), for which the T/C (endpoint: mean tumor weight, dose: 0.75 mg/kg/injection, schedule: Q02DX011 (ip), vehicle: saline, higher = larger tumour) was 117 % of control; the T/C (endpoint: mean tumor weight, dose: 1.5 mg/kg/injection, schedule: Q02DX011 (ip), vehicle: saline, higher = larger tumour) is 101 % of control; the T/C (endpoint: median tumor weight (est.), dose: 0.38 mg/kg/injection, schedule: Q02DX011 (ip), vehicle: saline, higher = larger tumour) was 82 % of control; the T/C (endpoint: median tumor weight (est.), dose: 0.75 mg/kg/injection, schedule: Q02DX011 (ip), vehicle: saline, higher = larger tumour) is 168 % of control; the T/C (endpoint: median tumor weight (est.), dose: 1.5 mg/kg/injection, schedule: Q02DX011 (ip), vehicle: saline, higher = larger tumour) is 110 % of control.

For the compound `CNNCc1ccc(C(=O)NC(C)C)cc1`, the T/C by setting is: (endpoint: median survival time, dose: 44.0 mg/kg/injection, schedule: Q04DX006 (ip), vehicle: saline, higher = longer survival) 118 % of control; (endpoint: median survival time, dose: 88.0 mg/kg/injection, schedule: Q02DX033 (ip), vehicle: saline, higher = longer survival) 214 % of control; (endpoint: median survival time, dose: 88.0 mg/kg/injection, schedule: Q04DX006 (ip), vehicle: saline, higher = longer survival) 151 % of control; (endpoint: median survival time, dose: 176.0 mg/kg/injection, schedule: Q02DX033 (ip), vehicle: saline, higher = longer survival) 92 % of control; (endpoint: median survival time, dose: 176.0 mg/kg/injection, schedule: Q04DX006 (ip), vehicle: saline, higher = longer survival) 216 % of control; (endpoint: median survival time, dose: 352.0 mg/kg/injection, schedule: Q04DX006 (ip), vehicle: saline, higher = longer survival) 179 % of control.

Regarding `O=P1(N(CCCl)CCCl)NCCCO1` (stereo not drawn), the T/C is, setting by setting: (endpoint: median survival time, dose: 6.25 mg/kg/injection, schedule: Q04DX006 (ip), vehicle: saline, higher = longer survival) 100 % of control; (endpoint: median survival time, dose: 12.5 mg/kg/injection, schedule: Q02DX033 (ip), vehicle: saline, higher = longer survival) 121 % of control; (endpoint: median survival time, dose: 12.5 mg/kg/injection, schedule: Q04DX006 (ip), vehicle: saline, higher = longer survival) 108 % of control; (endpoint: median survival time, dose: 25.0 mg/kg/injection, schedule: Q02DX033 (ip), vehicle: saline, higher = longer survival) 214 % of control; (endpoint: median survival time, dose: 25.0 mg/kg/injection, schedule: Q04DX006 (ip), vehicle: saline, higher = longer survival) 124 % of control; (endpoint: median survival time, dose: 50.0 mg/kg/injection, schedule: Q04DX006 (ip), vehicle: saline, higher = longer survival) 121 % of control. Moreover, the T/C (endpoint: median survival time, dose: 64.8 mg/kg/injection, schedule: Q01DX001 (ip), vehicle: saline, higher = longer survival) is 101 % of control; the T/C (endpoint: median survival time, dose: 210.0 mg/kg/injection, schedule: Q01DX001 (ip), vehicle: saline, higher = longer survival) was 155 % of control and 157 % of control.

On to `Nc1nc(=S)c2[nH]cnc2[nH]1`, for which the T/C reads like this: (endpoint: mean tumor weight, dose: 0.5 mg/kg/injection, schedule: Q02DX011 (ip), vehicle: Klucel (hydroxypropylcellulose) (HPC), higher = larger tumour) 58 % of control; (endpoint: mean tumor weight, dose: 1.0 mg/kg/injection, schedule: Q02DX011 (ip), vehicle: Klucel (hydroxypropylcellulose) (HPC), higher = larger tumour) 16 % of control; (endpoint: mean tumor weight, dose: 2.0 mg/kg/injection, schedule: Q02DX011 (ip), vehicle: Klucel (hydroxypropylcellulose) (HPC), higher = larger tumour) 3 % of control.

Regarding `CCC(C)C(NS(=O)(=O)c1ccc(C)cc1)C(=O)O` (stereo not drawn), the T/C reads like this: under setting [1], 87 % of control; under setting [2], 92 % of control; under setting [3], 92 % of control.
